Reference: article PMC10041525, “New Dual Inhibitors of Bacterial Topoisomerases with Broad-Spectrum Antibacterial Activity and In Vivo Efficacy against Vancomycin-Intermediate Staphylococcus aureus” (Journal of Medicinal Chemistry, 2023)
In brackets after ≈: the same amount, converted by molar mass. Read-outs that look alike come from different tables or passages of the source.

System: 100 A. baumannii strains (50 MDR, 50 non-MDR)
Test: MIC broth microdilution at IHMA Europe, panel of 100 strains
Type: cell-based
Conditions: Acinetobacter baumannii, read-out: MIC

**Q.** What does the source list for `C[C@@H](O)[C@H]1C(=O)N2C(C(=O)O)=C(SCCNC=N)C[C@H]12` [Imipenem, imipenem]?
**A.** MIC (A. baumannii IHMA 1769393, Lithuania 2018, Non-MDR): ≤ 0.25 µg/mL; MIC (A. baumannii IHMA 1769782, Israel 2018, MDR): > 16 µg/mL; MIC (A. baumannii IHMA 1769910, Israel 2018, Non-MDR): ≤ 0.25 µg/mL; MIC (A. baumannii IHMA 1790317, Czech Republic 2018, Non-MDR): ≤ 0.25 µg/mL; MIC (A. baumannii IHMA 1790916, Romania 2018, Non-MDR): ≤ 0.25 µg/mL; MIC (A. baumannii IHMA 1791877, Israel 2018, MDR): > 16 µg/mL; MIC (A. baumannii IHMA 1792961, Jordan 2018, MDR): > 16 µg/mL; MIC (A. baumannii IHMA 1795669, Tunisia 2018, Non-MDR): 0.5 µg/mL (≈ 1.67 µM); MIC (A. baumannii IHMA 1814276, Lebanon 2018, MDR): > 16 µg/mL; MIC (A. baumannii IHMA 1815198, Kuwait 2018, MDR): > 16 µg/mL; MIC (A. baumannii IHMA 1815856, Israel 2018, MDR): > 16 µg/mL; MIC (A. baumannii IHMA 1821468, South Africa 2018, Non-MDR): 0.5 µg/mL (≈ 1.67 µM); MIC (A. baumannii IHMA 1829500, Georgia 2018, Non-MDR): ≤ 0.25 µg/mL; MIC (A. baumannii IHMA 1830924, United Kingdom 2018, Non-MDR): ≤ 0.25 µg/mL; MIC (A. baumannii IHMA 1849819, Kuwait 2018, MDR): > 16 µg/mL; MIC (A. baumannii IHMA 1849829, Kuwait 2018, Non-MDR): ≤ 0.25 µg/mL; MIC (A. baumannii IHMA 1857118, Slovenia 2018, Non-MDR): ≤ 0.25 µg/mL; MIC (A. baumannii IHMA 1863631, France 2018, Non-MDR): ≤ 0.25 µg/mL; MIC (A. baumannii IHMA 1870054, United States 2018, Non-MDR): ≤ 0.25 µg/mL; MIC (A. baumannii IHMA 1884428, Italy 2018, Non-MDR): ≤ 0.25 µg/mL; MIC (A. baumannii IHMA 1884990, Germany 2018, Non-MDR): ≤ 0.25 µg/mL; MIC (A. baumannii IHMA 1900538, Turkey 2018, Non-MDR): ≤ 0.25 µg/mL; MIC (A. baumannii IHMA 1913773, Kenya 2018, Non-MDR): ≤ 0.25 µg/mL; MIC (A. baumannii IHMA 1926285, Qatar 2018, Non-MDR): ≤ 0.25 µg/mL; MIC (A. baumannii IHMA 1926288, Qatar 2018, MDR): > 16 µg/mL; MIC (A. baumannii IHMA 1957343, Portugal 2019, Non-MDR): ≤ 0.25 µg/mL; MIC (A. baumannii IHMA 1963732, Turkey 2019, MDR): > 16 µg/mL; MIC (A. baumannii IHMA 1967860, Spain 2019, Non-MDR): ≤ 0.25 µg/mL; MIC (A. baumannii IHMA 1971673, Latvia 2019, MDR): > 16 µg/mL; MIC (A. baumannii IHMA 1975075, Israel 2019, Non-MDR): ≤ 0.25 µg/mL; MIC (A. baumannii IHMA 1977077, Kuwait 2019, Non-MDR): ≤ 0.25 µg/mL; MIC (A. baumannii IHMA 1983151, Greece 2019, MDR): > 16 µg/mL; MIC (A. baumannii IHMA 1984665, Lithuania 2019, MDR): > 16 µg/mL; MIC (A. baumannii IHMA 1986678, Turkey 2019, Non-MDR): 0.5 µg/mL (≈ 1.67 µM); MIC (A. baumannii IHMA 1986738, Turkey 2019, MDR): > 16 µg/mL; MIC (A. baumannii IHMA 1987162, Croatia 2019, MDR): > 16 µg/mL; MIC (A. baumannii IHMA 1993615, Turkey 2019, MDR): > 16 µg/mL; MIC (A. baumannii IHMA 1994284, Italy 2019, MDR): > 16 µg/mL; MIC (A. baumannii IHMA 1995161, Czech Republic 2019, Non-MDR): ≤ 0.25 µg/mL; MIC (A. baumannii IHMA 1997936, Morocco 2019, Non-MDR): ≤ 0.25 µg/mL; MIC (A. baumannii IHMA 1999178, Belgium 2019, Non-MDR): ≤ 0.25 µg/mL; MIC (A. baumannii IHMA 2003279, Turkey 2019, MDR): > 16 µg/mL; MIC (A. baumannii IHMA 2014367, Jordan 2019, Non-MDR): ≤ 0.25 µg/mL; MIC (A. baumannii IHMA 2014931, South Africa 2019, Non-MDR): ≤ 0.25 µg/mL; MIC (A. baumannii IHMA 2019315, Romania 2019, Non-MDR): ≤ 0.25 µg/mL; MIC (A. baumannii IHMA 2020360, Croatia 2019, MDR): > 16 µg/mL; MIC (A. baumannii IHMA 2031511, Greece 2019, Non-MDR): ≤ 0.25 µg/mL; MIC (A. baumannii IHMA 2031524, Greece 2019, MDR): > 16 µg/mL; MIC (A. baumannii IHMA 2034657, Tunisia 2019, Non-MDR): ≤ 0.25 µg/mL; MIC (A. baumannii IHMA 2035089, Serbia 2019, MDR): > 16 µg/mL; MIC (A. baumannii IHMA 2035134, Serbia 2019, Non-MDR): ≤ 0.25 µg/mL; MIC (A. baumannii IHMA 2038976, Hungary 2019, MDR): > 16 µg/mL; MIC (A. baumannii IHMA 2051503, Serbia 2019, MDR): > 16 µg/mL; MIC (A. baumannii IHMA 2058329, Slovenia 2019, Non-MDR): ≤ 0.25 µg/mL; MIC (A. baumannii IHMA 2065587, France 2019, Non-MDR): ≤ 0.25 µg/mL; MIC (A. baumannii IHMA 2099294, United Kingdom 2019, Non-MDR): ≤ 0.25 µg/mL; MIC (A. baumannii IHMA 2129256, Qatar 2019, Non-MDR): ≤ 0.25 µg/mL; MIC (A. baumannii IHMA 2154584, Israel 2020, MDR): 16 µg/mL (≈ 53.4 µM); MIC (A. baumannii IHMA 2155340, Kenya 2020, MDR): 16 µg/mL (≈ 53.4 µM); MIC (A. baumannii IHMA 2156634, Turkey 2020, MDR): > 16 µg/mL; MIC (A. baumannii IHMA 2156709, Turkey 2020, MDR): > 16 µg/mL; MIC (A. baumannii IHMA 2157614, Australia 2020, Non-MDR): ≤ 0.25 µg/mL; MIC (A. baumannii IHMA 2177232, Lithuania 2020, MDR): > 16 µg/mL; MIC (A. baumannii IHMA 2177489, Lithuania 2020, MDR): > 16 µg/mL; MIC (A. baumannii IHMA 2178574, Ukraine 2020, Non-MDR): ≤ 0.25 µg/mL; MIC (A. baumannii IHMA 2180134, Malaysia 2020, Non-MDR): ≤ 0.25 µg/mL; MIC (A. baumannii IHMA 2180142, Malaysia 2020, MDR): 16 µg/mL (≈ 53.4 µM); MIC (A. baumannii IHMA 2181370, Morocco 2020, MDR): > 16 µg/mL; MIC (A. baumannii IHMA 2183729, Argentina 2020, MDR): 16 µg/mL (≈ 53.4 µM)
